Reference: patent US8192962B2, “Processes for detecting toxic substances” (Daikin Industries, Ltd., priority 2001, dated 2012)

Test system: Metabolism protein genes
Assay: DNA chip mRNA expression in yeast, metabolism protein genes (Table 7)
Assay type: cell-based, Saccharomyces cerevisiae S288C
Experimental: Yeast (Saccharomyces cerevisiae S288C (α SUC2mal mel gap2 CUP1)) were incubated at 25° C. on YPD medium (yeast extract 1%, polypepton 2%, glucose 2%). One of toxic chemical substances was added to the cells at logarithmic growth phase, and the cells were further incubated for two hours. Cells were cultured without any chemical substance in the same condition, and were used as control. Concentrations of the chemical substances were defined to inhibit the growth of the yeast but not lead to death.
After completion of the incubation, the culture was centrifuged to collect the cells. To the cells, sodium acetate buffer (50 mM sodium acetate, 10 mM EDTA, 1% SDS) was added, and the mixture was shaken at 65° C. for five minutes, followed by returning to room temperature, and obtaining the supernatant, of which the procedures were repeated two times. To the supernatant, ½ amount of a solution of phenol/chloroform was added, and the mixture was centrifuged to give a supernatant, which was added with an equal amount of chloroform, and the mixture was centrifuged to give a supernatant. To the supernatant, an equal amount of isopropanol containing 0.3 M sodium acetate was added, and the mixture was allowed to stand at room temperature for 30 minutes, after which the mixture was centrifuged to give a sediment of the whole RNAs. Seventy % ethanol was added to the sediment, and the mixture was again centrifuged to give a sediment, which was then dried and dissolved in water. mRNA was isolated from the whole RNAs as followings. In view of the fact that a poly A chain is attached to the 3′ terminus of mRNA, a polynucleotide having a poly T structure which was immobilized on the surface of latex beads was used to trap the mRNA, and then the mRNA was washed and eluted with spine column (Oligotex-dT30<Super>mRNA Purification Kit, Takara). Reverse transcription of the mRNA was conducted with a reverse transcriptase (Super Script II Reverse Transcriptase; catalogue No. 18064-014, GibcoBRL) using fluorescence-labeled nucleotides to give cDNAs that were introduced with Cy3-dUTP or Cy5-dUTP during the reverse transcription.
The labeled cDNAs were dissolved in TE buffer (10mM Tris-HCl/1 mM EDTA, pH8.0), and the solution was dropped on the DNA chip containing the whole genes of yeast (DNA Chip Research Inc. Japan) so that the cDNAs were hybridized on the DNA chip at 65° C. for over 12 hours. The fluoresces intensity of the DNA chip was read with a scanner, and the ratio relative to the fluorescence intensity resulting from the absence of chemical substance was estimated as the following, which is shown in Tables 1 to 9: […]

CCCCC[C@H](O)CC(=O)CCc1ccc(O)c(OC)c1 [(13), gingerol]
The level of expressed mRNA in the presence of chemical substance/The level of expressed mRNA in the absence of chemical substance (yeast gene YJL099W): 2.4 | level of expressed mRNA in the presence/in the absence of chemical substance (yeast gene YJL121C): 0.7 | level of expressed mRNA in the presence/in the absence of chemical substance (yeast gene YJL167W): 0.9 | The level of expressed mRNA in the presence of chemical substance/The level of expressed mRNA in the absence of chemical substance (yeast gene YJL172W): 3.1 | level of expressed mRNA in the presence/in the absence of chemical substance (yeast gene YJL216C): 1.1 | level of expressed mRNA in the presence/in the absence of chemical substance (yeast gene YJR077C): 0.9 | The level of expressed mRNA in the presence of chemical substance/The level of expressed mRNA in the absence of chemical substance (yeast gene YJR137C): 2.1 | level of expressed mRNA in the presence/in the absence of chemical substance (yeast gene YJR143C): 0.3 | The level of expressed mRNA in the presence of chemical substance/The level of expressed mRNA in the absence of chemical substance (yeast gene YJR148W): 1.1 | The level of expressed mRNA in the presence of chemical substance/The level of expressed mRNA in the absence of chemical substance (yeast gene YJR155W): 5.7 | The level of expressed mRNA in the presence of chemical substance/The level of expressed mRNA in the absence of chemical substance (yeast gene YKL035W): 2.0 | level of expressed mRNA in the presence/in the absence of chemical substance (yeast gene YKL060C): 1.2 | The level of expressed mRNA in the presence of chemical substance/The level of expressed mRNA in the absence of chemical substance (yeast gene YKL091C): 2.0 | The level of expressed mRNA in the presence of chemical substance/The level of expressed mRNA in the absence of chemical substance (yeast gene YKL104C): 2.2 | level of expressed mRNA in the presence/in the absence of chemical substance (yeast gene YKL148C): 0.8 | The level of expressed mRNA in the presence of chemical substance/The level of expressed mRNA in the absence of chemical substance (yeast gene YKL152C): 2.7 | level of expressed mRNA in the presence/in the absence of chemical substance (yeast gene YKL157W): 2.3 | The level of expressed mRNA in the presence of chemical substance/The level of expressed mRNA in the absence of chemical substance (yeast gene YKL213C): 2.1 | The level of expressed mRNA in the presence of chemical substance/The level of expressed mRNA in the absence of chemical substance (yeast gene YKL215C): 2.6 | level of expressed mRNA in the presence/in the absence of chemical substance (yeast gene YKR034W): 1.2 | The level of expressed mRNA in the presence of chemical substance/The level of expressed mRNA in the absence of chemical substance (yeast gene YKR039W): 1.3 | The level of expressed mRNA in the presence of chemical substance/The level of expressed mRNA in the absence of chemical substance (yeast gene YLL058W): 2.3 | level of expressed mRNA in the presence/in the absence of chemical substance (yeast gene YLR006C): 0.8 | level of expressed mRNA in the presence/in the absence of chemical substance (yeast gene YLR044C): 1.7 | level of expressed mRNA in the presence/in the absence of chemical substance (yeast gene YLR056W): 0.2 | level of expressed mRNA in the presence/in the absence of chemical substance (yeast gene YLR058C): 0.3 | level of expressed mRNA in the presence/in the absence of chemical substance (yeast gene YLR081W): 0.6 | level of expressed mRNA in the presence/in the absence of chemical substance (yeast gene YLR089C): 1.0 | The level of expressed mRNA in the presence of chemical substance/The level of expressed mRNA in the absence of chemical substance (yeast gene YLR180W): 0.6 | The level of expressed mRNA in the presence of chemical substance/The level of expressed mRNA in the absence of chemical substance (yeast gene YLR273C): 1.7 | level of expressed mRNA in the presence/in the absence of chemical substance (yeast gene YLR284C): 0.8 | The level of expressed mRNA in the presence of chemical substance/The level of expressed mRNA in the absence of chemical substance (yeast gene YLR299W): 2.9 | level of expressed mRNA in the presence/in the absence of chemical substance (yeast gene YLR304C): 0.5 | The level of expressed mRNA in the presence of chemical substance/The level of expressed mRNA in the absence of chemical substance (yeast gene YLR307W): 1.0 | The level of expressed mRNA in the presence of chemical substance/The level of expressed mRNA in the absence of chemical substance (yeast gene YLR348C): 1.9 | level of expressed mRNA in the presence/in the absence of chemical substance (yeast gene YLR354C): 1.0 | level of expressed mRNA in the presence/in the absence of chemical substance (yeast gene YLR372W): 0.1 | level of expressed mRNA in the presence/in the absence of chemical substance (yeast gene YML022W): 0.2 | level of expressed mRNA in the presence/in the absence of chemical substance (yeast gene YMR011W): 0.4 | level of expressed mRNA in the presence/in the absence of chemical substance (yeast gene YMR015C): 0.4 | level of expressed mRNA in the presence/in the absence of chemical substance (yeast gene YMR083W): 0.9 | The level of expressed mRNA in the presence of chemical substance/The level of expressed mRNA in the absence of chemical substance (yeast gene YMR189W): 0.9 | level of expressed mRNA in the presence/in the absence of chemical substance (yeast gene YMR205C): 1.3 | level of expressed mRNA in the presence/in the absence of chemical substance (yeast gene YMR261C): 1.6 | The level of expressed mRNA in the presence of chemical substance/The level of expressed mRNA in the absence of chemical substance (yeast gene YMR296C): 0.9 | level of expressed mRNA in the presence/in the absence of chemical substance (yeast gene YMR323W): 1.8 | The level of expressed mRNA in the presence of chemical substance/The level of expressed mRNA in the absence of chemical substance (yeast gene YNL012W): 2.9 | level of expressed mRNA in the presence/in the absence of chemical substance (yeast gene YNL025C): 1.3 | The level of expressed mRNA in the presence of chemical substance/The level of expressed mRNA in the absence of chemical substance (yeast gene YNL037C): 1.9 | The level of expressed mRNA in the presence of chemical substance/The level of expressed mRNA in the absence of chemical substance (yeast gene YNL045W): 2.6 | The level of expressed mRNA in the presence of chemical substance/The level of expressed mRNA in the absence of chemical substance (yeast gene YNL104C): 2.1 | The level of expressed mRNA in the presence of chemical substance/The level of expressed mRNA in the absence of chemical substance (yeast gene YNL106C): 0.9 | The level of expressed mRNA in the presence of chemical substance/The level of expressed mRNA in the absence of chemical substance (yeast gene YNL169C): 1.7 | level of expressed mRNA in the presence/in the absence of chemical substance (yeast gene YNL192W): 2.7 | The level of expressed mRNA in the presence of chemical substance/The level of expressed mRNA in the absence of chemical substance (yeast gene YNL322C): 0.8 | The level of expressed mRNA in the presence of chemical substance/The level of expressed mRNA in the absence of chemical substance (yeast gene YNL331C): 3.1 | The level of expressed mRNA in the presence of chemical substance/The level of expressed mRNA in the absence of chemical substance (yeast gene YNL332W): 2.1 | The level of expressed mRNA in the presence of chemical substance/The level of expressed mRNA in the absence of chemical substance (yeast gene YNR002C): 2.1 | The level of expressed mRNA in the presence of chemical substance/The level of expressed mRNA in the absence of chemical substance (yeast gene YNR019W): 2.1 | The level of expressed mRNA in the presence of chemical substance/The level of expressed mRNA in the absence of chemical substance (yeast gene YNR059W): 2.4 | The level of expressed mRNA in the presence of chemical substance/The level of expressed mRNA in the absence of chemical substance (yeast gene YOL058W): 1.2 | level of expressed mRNA in the presence/in the absence of chemical substance (yeast gene YOL086C): 1.7 | level of expressed mRNA in the presence/in the absence of chemical substance (yeast gene YOL108C): 1.3 | level of expressed mRNA in the presence/in the absence of chemical substance (yeast gene YOL116W): 0.8 | The level of expressed mRNA in the presence of chemical substance/The level of expressed mRNA in the absence of chemical substance (yeast gene YOL143C): 1.2 | level of expressed mRNA in the presence/in the absence of chemical substance (yeast gene YOL156W): 1.7 | The level of expressed mRNA in the presence of chemical substance/The level of expressed mRNA in the absence of chemical substance (yeast gene YOL165C): 3.7 | level of expressed mRNA in the presence/in the absence of chemical substance (yeast gene YOR002W): 0.6 | level of expressed mRNA in the presence/in the absence of chemical substance (yeast gene YOR085W): 1.0 | The level of expressed mRNA in the presence of chemical substance/The level of expressed mRNA in the absence of chemical substance (yeast gene YOR099W): 1.6 | level of expressed mRNA in the presence/in the absence of chemical substance (yeast gene YOR103C): 0.8 | level of expressed mRNA in the presence/in the absence of chemical substance (yeast gene YOR108W): 1.3 | level of expressed mRNA in the presence/in the absence of chemical substance (yeast gene YOR128C): 0.4 | The level of expressed mRNA in the presence of chemical substance/The level of expressed mRNA in the absence of chemical substance (yeast gene YOR130C): 2.1 | The level of expressed mRNA in the presence of chemical substance/The level of expressed mRNA in the absence of chemical substance (yeast gene YOR136W): 1.5 | level of expressed mRNA in the presence/in the absence of chemical substance (yeast gene YOR142W): 1.4 | level of expressed mRNA in the presence/in the absence of chemical substance (yeast gene YOR176W): 1.5 | level of expressed mRNA in the presence/in the absence of chemical substance (yeast gene YOR178C): 1.0 | level of expressed mRNA in the presence/in the absence of chemical substance (yeast gene YOR251C): 1.0 | The level of expressed mRNA in the presence of chemical substance/The level of expressed mRNA in the absence of chemical substance (yeast gene YOR336W): 2.1 | The level of expressed mRNA in the presence of chemical substance/The level of expressed mRNA in the absence of chemical substance (yeast gene YOR347C): 1.8 | level of expressed mRNA in the presence/in the absence of chemical substance (yeast gene YOR348C): 1.1 | The level of expressed mRNA in the presence of chemical substance/The level of expressed mRNA in the absence of chemical substance (yeast gene YPL017C): 1.9 | level of expressed mRNA in the presence/in the absence of chemical substance (yeast gene YPL028W): 0.9 | level of expressed mRNA in the presence/in the absence of chemical substance (yeast gene YPL057C): 1.3 | level of expressed mRNA in the presence/in the absence of chemical substance (yeast gene YPL135W): 1.2 | level of expressed mRNA in the presence/in the absence of chemical substance (yeast gene YPL148C): 0.6 | level of expressed mRNA in the presence/in the absence of chemical substance (yeast gene YPR113W): 0.7 | level of expressed mRNA in the presence/in the absence of chemical substance (yeast gene YPR165W): 1.0 | The level of expressed mRNA in the presence of chemical substance/The level of expressed mRNA in the absence of chemical substance (yeast gene YPR167C): 1.9 | level of expressed mRNA in the presence/in the absence of chemical substance (yeast gene YPR183W): 1.6
